“Also recorded” adds a separate entry of the source. Positions of bridges follow the written chain, without caps; N, C: chain ends. Non-standard residues stand in square brackets, D forms with d. *: point of attachment. Dap = NC[C@H](N)C(=O)O; For = O=C*
Tests used:
HK-2 cells = experiment: TNF-α-induced inflammatory cytokine production in HK-2 cells (ELISA); format: cell-based, human
Description: FIG. 37 provides a bar graph showing a comparison of the effects of THR-123 (or “THR-1405”) and the specific inhibitor SB 203580 on the level of TNF-α-induced IL-6 production, an inflammatory marker, in human renal tubule epithelial cells (HK-2).
FIG. 47A-FIG. 47C Anti-inflammatory activity of THR-123. PTEC-derived HK-2 (HK-2) cells were culture on 24-well plate (30,000 cells/well). Cells are exposed to K-SFM medium alone or TNF-α (5 ng/ml). Twenty hours after TNF-α incubation, cells are washed twice by pre-warmed culture media and subsequently cells are incubated with various concentration of THR-123 or BMP7 for 60 hours. At the end of incubation, culture medias are harvested and ELISA analysis are performed. FIG. 47A: IL-6, FIG. 47B: IL-8 and FIG. 47C: ICAM-1 results are shown. Analyze are performed in triplicates and data are shown as mean±s.e.m. in the graph.
Preliminary screening for optimization was based on anti-inflammatory efficacy in an in vitro cell-based assay using a human renal tubular epithelial cell line (HK-2). The assay tested the ability of compounds to reverse the increase in production of cytokine IL-6 that resulted from stimulation of the cells with tumor necrosis factor (TNF)-α. Sequence-activity analysis was carried out using the SVA program. After six optimization cycles, THR-123 (FIG. 2A) emerged as the lead compound, which was further evaluated in other relevant anti-fibrosis assays (vide infra).
Human proximal tubular epithelial cells-derived HK-2 cells were culture on 24-well plate (30,000 cells/well). Cells are exposed to K-SFM medium alone or […] (5 ng/ml). Twenty hours after TNF-α incubation, cells are washed twice by pre-warmed culture media and subsequently cells are incubated with various concentration of THR-123 or BMP7 for 60 hours. At the end of incubation, culture medias are harvested and ELISA analysis for IL-6, IL-8 and ICAM-1 are performed.

[1] = test system: human proximal tubule epithelial cells (HK2); experiment: D-glucose-induced EMT assay, E-cadherin immunofluorescence with colorimetric image analysis; format: cell-based; conditions: for Percent inhibition of D-glucose-induced EMT: 0% = D-glucose untreated, 100% = media without D-glucose
Description: Chronic hyperglycemia is a known cause of renal fibrosis in type 2 diabetes. The assay in this example induces the transdifferentiation from the epithelial to the mesenchymal phenotype (EMT) in human proximal tubule epithelial cells (HK2) by exposing them to high levels of D-glucose (100 mM and 200 mM). […] Exposure to 100 mM D-glucose results in the loss of E-cadherine expression as evidenced by the loss of the fluorescene signal. Using this assay test compounds are evaluated based on their ability to inhibit the EMT processes in the presence of high levels of D-glucose. FIGS. 4-16 are fluorescence micrographs of HK2 cells exposed to 100 mM D-glucose and 100 uM of SEQ IS NOs 1 through 11, respectively. Note that all but SEQ ID NOs 10 and 11 were able to preserve the epithelial phenotype (i.e., inhibit the EMT).
Results are provided in the context of FIG. 1 and Table 3, below. In Table 3 below, compound response is scored using image analysis as described herein in the method of Methods and Materials, part C. A 0% response corresponds to the signal for 100 mM (or 200 mM) D-glucose (untreated) while the 100% response corresponds to the signal for media in the absence of D-glucose.
It has been shown that transdifferentiation of proximal tubular epithelial cells is a critical step in the development of renal fibrosis, and that this is associated with a loss of the epithelial phenotypic marker, E-cadherin expression. This provides the basis for the development of a cell-based screening assay in which high concentrations of D-Glucose (50-100 mM) are used to induce a loss of E-cadherin expression in human renal proximal tubular epithelial (HK-2) cells, and compounds are tested for their ability to reverse the loss E-cadherin expression.
Materials: • Human proximal tubular epithelial cells, HK-2 (ATCC #CRL-2190) • Serum-free keratinocyte medium (GIBCO #17005-042, K-SFM) • Epidermal growth factor (EGF: 5 ng/mL) • Bovine pituitary extract (BPE: 40 ug/mL) • Primary antibody, Mouse IgG anti-E-cadherin (R&D Systems # MAB1838) • BSA [Sigma #A7030] • secondary antibody, FITC-conjugated Goat anti-mouse IgG (Fab2) fragment (Sigma-Aldrich # F-2653) • Paraformaldehyde (10%)) • Triton X-100 (Sigma # T-9284) • PBS (Fisher Scientific #BP399-1) • D-PBS (Invitrogen #14190-144) • Polypropylene tips (Axygen, Inc. 0.5-10 uL, cat # T-300-L-R; 1-200 uL, Cat # T-200-L-R; 1-1000 uL, Cat # T-1000-C-L-R) • 50 mL polypropylene culture tubes (Fisher Scientific, cat #06-443-18) • 24-well Coster cell culture plates (Fisher Scientific #07-200-84)
Reagents & Test Samples: • Positive control: BMP-7, assayed at concentrations 0.1 and 1 ug/mL • Test compounds (peptides): each tested at final concentrations 100 uM and 200 uM.
Assay Procedure for Cell Culture Assay: • Run assay in 24-well culture plates. • Seed HK-2 cells at a density between 25,000 and 30,000 cells per well in lmL K-SFM medium with supplements added (growth medium) • Incubate HK-2 cells for 24 hours at 37° C., and let cells attach the plate • Next Day afternoon, change the medium with K-SFM medium with no added supplements (serum free medium) in all wells except the first two control wells. • Continue incubating HK-2 cells overnight at 37° C. • Next Day, aspirate the medium from all wells. Incubate the cells in growth medium (first two control wells) or expose them to test compounds for 2 hours at 37° C. Final concentrations of each Test compound are 100 and 200 uM. BMP-7 serves as a positive control in the assay. • After incubation, add D-glucose to all wells except first two control wells. Final concentrations of D-Glucose are 50 and 100 mM. • Incubate HK-2 cells for 60 hours at 37° C. • Aspirate the medium from all wells. To the wells, add pre-warmed growth medium or serum free medium containing D-glucose alone or D-glucose and test compound or D-glucose and BMP-7. Final concentrations of D-Glucose and Test compound are the same as above. • Continue incubating HK-2 cells for 24 hours at 37° C. […]

[2] = test system: Streptozotocin-induced diabetic CD-1 mice; experiment: Advanced diabetic nephropathy, captopril and captopril/THR-123 combination (month 7-8)
p38 MAPK = p38 MAPK phosphorylation in HK-2 cells; format: cell-based, human; conditions: HK-2 cells
Excerpt: The significance of p38 MAPK is that this protein is implicated as a non-Smad-dependent pathway for TGF-β-dependent EMT. Other non-Smad-dependent pathways implicated in TGF-β-dependent EMT include RhoA, Ras, PI3 kinase, Notch, and Wnt signaling pathways.
It has been shown that regulation p38 MAPK activity by pro-inflammatory factors has implications in fibrosis.

Molecule | Percent inhibition of D-glucose-induced EMT ([1]; 100 uM peptide) | Percent inhibition of D-glucose-induced EMT ([1]; 200 uM peptide) | also measured
(H)-CYYDDSSSVLCKKYRS-(OH) (H-CYYDDSSSVLCKKYRS-OH; disulfide 1-11; SMILES CC(C)C[C@@H]1NC(=O)[C@H](C(C)C)NC(=O)[C@H](CO)NC(=O)[C@H](CO)NC(=O)[C@H](CO)NC(=O)[C@H](CC(=O)O)NC(=O)[C@H](CC(=O)O)NC(=O)[C@H](Cc2ccc(O)cc2)NC(=O)[C@H](Cc2ccc(O)cc2)NC(=O)[C@@H](N)CSSC[C@@H](C(=O)N[C@@H](CCCCN)C(=O)N[C@@H](CCCCN)C(=O)N[C@@H](Cc2ccc(O)cc2)C(=O)N[C@@H](CCCNC(=N)N)C(=O)N[C@@H](CO)C(=O)O)NC1=O) [SEQ ID NO: 11] |  |  | activity in anti-inflammatory assays (HK-2 cells): positive; preservation of the epithelial phenotype (inhibition of EMT), anti-fibrotic effect ([1]; HK2 cells, high D-glucose): very weak anti-fibrotic effect; also recorded: unable to inhibit the EMT process
C[C@H](CS)C(=O)N1CCC[C@H]1C(=O)O [captopril] |  |  | mesangial matrix expansion ([2]; CPR p.o. 50 mg/Kg/day, THR-123 p.o. 5 mg/Kg/day, month 7 to 8): did not inhibit progression of mesangial matrix expansion; EMT program (E-cadherin/FSP1 double positive tubules) ([2]; month 7 to 8 treatment): inhibited; macrophage infiltration ([2]; month 7 to 8 treatment): partially; tubule cell apoptosis (TUNEL) in diabetic kidney ([2]; month 7 to 8 treatment): significantly inhibited apoptosis; macrophage infiltration ([2]; month 7 to 8 treatment, listed as CPR): inhibited macrophage infiltration
6 (For-CYYDNSSSVLCKRYRS-OH; disulfide 1-11; SMILES CC(C)C[C@@H]1NC(=O)[C@H](C(C)C)NC(=O)[C@H](CO)NC(=O)[C@H](CO)NC(=O)[C@H](CO)NC(=O)[C@H](CC(N)=O)NC(=O)[C@H](CC(=O)O)NC(=O)[C@H](Cc2ccc(O)cc2)NC(=O)[C@H](Cc2ccc(O)cc2)NC(=O)[C@@H](NC=O)CSSC[C@@H](C(=O)N[C@@H](CCCCN)C(=O)N[C@@H](CCCNC(=N)N)C(=O)N[C@@H](Cc2ccc(O)cc2)C(=O)N[C@@H](CCCNC(=N)N)C(=O)N[C@@H](CO)C(=O)O)NC1=O) [compound 6] | 88% | 109% | 
9 (H-[Dap]YYDNSSSVLDKRYRS-OH; SMILES CC(C)C[C@H](NC(=O)[C@@H](NC(=O)[C@H](CO)NC(=O)[C@H](CO)NC(=O)[C@H](CO)NC(=O)[C@H](CC(N)=O)NC(=O)[C@H](CC(=O)O)NC(=O)[C@H](Cc1ccc(O)cc1)NC(=O)[C@H](Cc1ccc(O)cc1)NC(=O)[C@@H](N)CN)C(C)C)C(=O)N[C@@H](CC(=O)O)C(=O)N[C@@H](CCCCN)C(=O)N[C@@H](CCCNC(=N)N)C(=O)N[C@@H](Cc1ccc(O)cc1)C(=O)N[C@@H](CCCNC(=N)N)C(=O)N[C@@H](CO)C(=O)O) [compound 9] | 83% | 125% | 
C[S+]([O-])c1ccc(-c2nc(-c3ccncc3)c(-c3ccc(F)cc3)[nH]2)cc1 (stereo not drawn) [SB 203580, reference compound] |  |  | TNF-α-induced IL-6 production (HK-2 cells; HK-2 cells): significantly reduced; basal p38 phosphorylation (p38 MAPK): inhibited p38 phosphorylation
8 (H-CYYDNSSSVLCKKYRS-OH; disulfide 1-11; SMILES CC(C)C[C@@H]1NC(=O)[C@H](C(C)C)NC(=O)[C@H](CO)NC(=O)[C@H](CO)NC(=O)[C@H](CO)NC(=O)[C@H](CC(N)=O)NC(=O)[C@H](CC(=O)O)NC(=O)[C@H](Cc2ccc(O)cc2)NC(=O)[C@H](Cc2ccc(O)cc2)NC(=O)[C@@H](N)CSSC[C@@H](C(=O)N[C@@H](CCCCN)C(=O)N[C@@H](CCCCN)C(=O)N[C@@H](Cc2ccc(O)cc2)C(=O)N[C@@H](CCCNC(=N)N)C(=O)N[C@@H](CO)C(=O)O)NC1=O) [compound 8] | 155% | 104% | 
10 (H-CYFNDSSQVLCKRYRS-OH; disulfide 1-11; SMILES CC(C)C[C@@H]1NC(=O)[C@H](C(C)C)NC(=O)[C@H](CCC(N)=O)NC(=O)[C@H](CO)NC(=O)[C@H](CO)NC(=O)[C@H](CC(=O)O)NC(=O)[C@H](CC(N)=O)NC(=O)[C@H](Cc2ccccc2)NC(=O)[C@H](Cc2ccc(O)cc2)NC(=O)[C@@H](N)CSSC[C@@H](C(=O)N[C@@H](CCCCN)C(=O)N[C@@H](CCCNC(=N)N)C(=O)N[C@@H](Cc2ccc(O)cc2)C(=O)N[C@@H](CCCNC(=N)N)C(=O)N[C@@H](CO)C(=O)O)NC1=O) [compound 10] | 20% | 17% | 
7 (Ac-CYYDNSSSVLCKRYRS-OH; disulfide 1-11; SMILES CC(=O)N[C@H]1CSSC[C@@H](C(=O)N[C@@H](CCCCN)C(=O)N[C@@H](CCCNC(=N)N)C(=O)N[C@@H](Cc2ccc(O)cc2)C(=O)N[C@@H](CCCNC(=N)N)C(=O)N[C@@H](CO)C(=O)O)NC(=O)[C@H](CC(C)C)NC(=O)[C@H](C(C)C)NC(=O)[C@H](CO)NC(=O)[C@H](CO)NC(=O)[C@H](CO)NC(=O)[C@H](CC(N)=O)NC(=O)[C@H](CC(=O)O)NC(=O)[C@H](Cc2ccc(O)cc2)NC(=O)[C@H](Cc2ccc(O)cc2)NC1=O) [compound 7] | 65% | 103% | 
4 (H-CYYDNSSSVLCKRYRS-OH; disulfide 1-11; not fully specified (residue 14)) [compound 4] | 99% | 130% | 
